Measurements reported in patent US11584714B2 (priority 2018, dated 2023).
Structures can show the parent of a compound that is named as a salt. Where two headings read alike, the source gives them in different places.

Experiments:
Assay type in all cases: biochemical
MASP-2 (CCP1-CCP2-SP) = MASP-2 (CCP1-CCP2-SP) (Homo sapiens (Human), UniProt O00187); experiment: biochemical; details: for MASP-2 vs. thrombin selectivity: selectivity for MASP-2 inhibition versus thrombin
mMASP-2 = mMASP-2 (Mus musculus (Mouse), UniProt Q91WP0); experiment: Enzymatic inhibition of mMASP-2
human α-thrombin = human α-thrombin (Homo sapiens (Human), UniProt P00734); experiment: Enzymatic assay for thrombin (Boc-VPR-AMC substrate)
Lectin Pathway = experiment: Lectin pathway activation assay in human serum (mannan-coated ELISA, C3c detection); details: 1% human serum

MASP-2 (CCP1-CCP2-SP), sequence (O00187 445-686): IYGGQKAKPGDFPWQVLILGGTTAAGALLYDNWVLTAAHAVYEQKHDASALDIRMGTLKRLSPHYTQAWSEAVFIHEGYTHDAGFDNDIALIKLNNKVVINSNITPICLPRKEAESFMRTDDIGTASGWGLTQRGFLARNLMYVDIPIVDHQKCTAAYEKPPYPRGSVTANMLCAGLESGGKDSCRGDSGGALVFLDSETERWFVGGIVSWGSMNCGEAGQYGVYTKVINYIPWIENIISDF
mMASP-2, sequence (Q91WP0 20-685): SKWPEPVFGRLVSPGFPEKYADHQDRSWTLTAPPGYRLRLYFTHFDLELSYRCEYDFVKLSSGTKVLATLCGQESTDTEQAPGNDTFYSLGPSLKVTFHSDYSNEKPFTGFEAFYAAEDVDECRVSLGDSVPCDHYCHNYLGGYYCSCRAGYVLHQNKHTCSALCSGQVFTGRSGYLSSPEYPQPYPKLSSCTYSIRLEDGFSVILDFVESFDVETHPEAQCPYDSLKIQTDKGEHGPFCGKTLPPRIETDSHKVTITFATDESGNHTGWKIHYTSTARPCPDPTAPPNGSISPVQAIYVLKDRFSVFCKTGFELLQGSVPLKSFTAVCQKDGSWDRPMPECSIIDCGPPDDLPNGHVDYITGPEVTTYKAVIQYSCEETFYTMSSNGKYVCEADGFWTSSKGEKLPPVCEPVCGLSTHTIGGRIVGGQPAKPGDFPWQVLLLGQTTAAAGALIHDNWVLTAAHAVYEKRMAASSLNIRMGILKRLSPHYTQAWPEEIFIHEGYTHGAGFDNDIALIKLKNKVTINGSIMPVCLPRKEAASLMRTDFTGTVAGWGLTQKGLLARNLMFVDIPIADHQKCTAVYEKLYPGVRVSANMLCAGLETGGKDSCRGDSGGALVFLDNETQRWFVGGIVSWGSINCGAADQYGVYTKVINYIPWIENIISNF

| SMILES | Ki (MASP-2 (CCP1-CCP2-SP); read-out: MASP-2 Ki) [nM] | MASP-2 vs. thrombin selectivity (MASP-2 (CCP1-CCP2-SP)) | Ki (mMASP-2; read-out: mMASP-2 Ki) [nM] | Ki (human α-thrombin; Thrombin Ki (μM)) [µM] | IC50 (Lectin Pathway) [nM] | Ki (human α-thrombin; read-out: Thrombin Ki) [µM] | Ki (mMASP-2) [nM] | Ki (MASP-2 (CCP1-CCP2-SP)) [nM] |
| --- | --- | --- | --- | --- | --- | --- | --- | --- |
| C[C@H](NC(=O)[C@H]1C[C@@H](c2ccccc2)CCN1)C(=O)NCc1cnc2[nH]cc(Cl)c2c1 [compound 1433, (2R,4S)—N—((S)-1-(((3-Chloro-1H-pyrrolo[2,3-b]pyridin-5-yl)methyl)amino)-1-oxopropan-2-yl)-4-phenylpiperidine-2-carboxamide] | < 500 | **** (≥100-fold) | < 500 | 0.5 to 2.5 | 50 to 500 | – | – | – |
| Cc1nc(N)ccc1CNC(=O)[C@H](C)NC(=O)[C@H]1C[C@H](Cc2cc(Cl)cc(Cl)c2)CN1 [compound 1435, (2R,4S)—N—((S)-1-(((6-Amino-2-methylpyridin-3-yl)methyl)amino)-1-oxopropan-2-yl)-4-(3,5-dichlorobenzyl)pyrrolidine-2-carboxamide Dihydrochloride] | < 500 | **** (≥100-fold) | < 500 | 10 to 25 | 500 to 5000 | – | – | – |
| Cc1nc(N)ccc1CNC(=O)[C@@H]1CCN1C(=O)[C@H]1C[C@H](Cc2ccc(Br)cc2)CN1 [compound 1438, (S)—N-((6-Amino-2-methylpyridin-3-yl)methyl)-1-((2R,4S)-4-(4-bromobenzyl)pyrrolidine-2-carbonyl)azetidine-2-carboxamide Di-trifluoroacetate salt] | < 500 | ** (≥5.0 to <25-fold) | 500 to 2500 | – | 500 to 5000 | < 0.5 | – | – |
| Cc1nc(N)ccc1CNC(=O)[C@H](C)NC(=O)[C@H]1C[C@@H](c2ccccc2)CCN1C [compound 1441, (2R,4S)—N—((S)-1-(((6-Amino-2-methylpyridin-3-yl)methyl)amino)-1-oxopropan-2-yl)-1-methyl-4-phenylpiperidine-2-carboxamide] | < 500 | – | < 500 | – | 50 to 500 | > 25 | – | – |
| Cc1nc(N)ccc1CNC(=O)[C@H](C)NC(=O)[C@H]1C[C@H](Cc2ccc(Cl)cc2Cl)CN1 [compound 1443, (2R,4S)—N—((S)-1-(((6-Amino-2-methylpyridin-3-yl)methyl)amino)-1-oxopropan-2-yl)-4-(2,4-dichlorobenzyl)pyrrolidine-2-carboxamide Dihydrochloride] | < 500 | *** (≥25 to <100-fold) | < 500 | 0.5 to 2.5 | 500 to 5000 | – | – | – |
| Cc1nc(N)ccc1CNC(=O)[C@H](C)NC(=O)[C@H]1C[C@H](Cc2cc(Cl)ccc2Cl)CN1 [compound 1444, (2R,4S)—N—((S)-1-(((6-Amino-2-methylpyridin-3-yl)methyl)amino)-1-oxopropan-2-yl)-4-(2,5-dichlorobenzyl)pyrrolidine-2-carboxamide Dihydrochloride] | < 500 | ** (≥5.0 to <25-fold) | < 500 | – | 500 to 5000 | < 0.5 | – | – |
| Cc1nc(N)ccc1CNC(=O)[C@H](C)NC(=O)[C@H]1C[C@H](Oc2ccc(Br)cc2)CN1 [compound 1445, (2R,4S)—N—((S)-1-(((6-Amino-2-methylpyridin-3-yl)methyl)amino)-1-oxopropan-2-yl)-4-(4-bromophenoxy)pyrrolidine-2-carboxamide Dihydrochloride] | < 500 | **** (≥100-fold) | 500 to 2500 | – | 5000 to 50000 | > 25 | – | – |
| Cc1nc(N)ccc1CNC(=O)[C@H](C)NC(=O)[C@H]1C[C@H](Oc2ccccc2)CN1 [compound 1446, (2R,4S)—N—((S)-1-(((6-Amino-2-methylpyridin-3-yl)methyl)amino)-1-oxopropan-2-yl)-4-phenoxypyrrolidine-2-carboxamide] | < 500 | **** (≥100-fold) | 500 to 2500 | – | 5000 to 50000 | > 25 | – | – |
| Cc1nc(N)ccc1CNC(=O)[C@H](C)NC(=O)[C@H]1C[C@H](Cc2ccc(F)cc2)CN1 [compound 1447, (2R,4S)—N—((S)-1-(((6-Amino-2-methylpyridin-3-yl)methyl)amino)-1-oxopropan-2-yl)-4-(4-fluorobenzyl)pyrrolidine-2-carboxamide Di-trifluoroacetate salt] | < 500 | **** (≥100-fold) | < 500 | 2.5 to 10 | 500 to 5000 | – | – | – |
| Cc1nc(N)ccc1CNC(=O)[C@H](C)NC(=O)[C@H]1C[C@H](Cc2ccc3nsnc3c2)CN1 [compound 1449, (2R,4S)—N—((S)-1-(((6-Amino-2-methylpyridin-3-yl)methyl)amino)-1-oxopropan-2-yl)-4-(benzo[c][1,2,5]thiadiazol-5-ylmethyl)pyrrolidine-2-carboxamide Di-trifluoroacetate salt] | < 500 | **** (≥100-fold) | < 500 | 2.5 to 10 | 500 to 5000 | – | – | – |
| Cc1nc(N)ccc1CNC(=O)[C@H](C)NC(=O)[C@H]1C[C@H](Cc2ccc(Cl)c(Br)c2)CN1 [compound 1451, (2R,4S)—N—((S)-1-(((6-Amino-2-methylpyridin-3-yl)methyl)amino)-1-oxopropan-2-yl)-4-(3-bromo-4-chlorobenzyl)pyrrolidine-2-carboxamide Di-trifluoroacetate salt] | < 500 | **** (≥100-fold) | < 500 | 10 to 25 | 500 to 5000 | – | – | – |
| Cc1nc(N)ccc1CNC(=O)[C@H](C)NC(=O)[C@H]1C[C@H](Cc2cccc(Br)c2)CN1 [compound 1452, (2R,4S)—N—((S)-1-(((6-Amino-2-methylpyridin-3-yl)methyl)amino)-1-oxopropan-2-yl)-4-(3-bromobenzyl)pyrrolidine-2-carboxamide Dihydrochloride] | < 500 | **** (≥100-fold) | < 500 | 0.5 to 2.5 | 500 to 5000 | – | – | – |
| COc1ccc2cc(C[C@@H]3CN[C@@H](C(=O)N[C@@H](C)C(=O)NCc4ccc(N)nc4C)C3)ccc2c1 [compound 1453, (2R,4S)—N—((S)-1-(((6-Amino-2-methylpyridin-3-yl)methyl)amino)-1-oxopropan-2-yl)-4-((6-methoxynaphthalen-2-yl)methyl)pyrrolidine-2-carboxamide Dihydrochloride] | < 500 | **** (≥100-fold) | < 500 | 10 to 25 | < 50 | – | – | – |
| Cc1nc(N)ccc1CNC(=O)[C@H](C)NC(=O)[C@H]1C[C@H](Cc2ccc(Cl)s2)CN1 [compound 1454, (2R,4R)—N—((S)-1-(((6-Amino-2-methylpyridin-3-yl)methyl)amino)-1-oxopropan-2-yl)-4-((5-chlorothiophen-2-yl)methyl)pyrrolidine-2-carboxamide Dihydrochloride] | < 500 | *** (≥25 to <100-fold) | < 500 | 0.5 to 2.5 | 500 to 5000 | – | – | – |
| Cc1cc(Cl)cc(CNC(=O)[C@H](C)NC(=O)[C@H]2C[C@H](Cc3ccc(Cl)s3)CN2)c1O [compound 1456, (2R,4R)—N—((S)-1-((5-Chloro-2-hydroxy-3-methylbenzyl)amino)-1-oxopropan-2-yl)-4-((5-chlorothiophen-2-yl)methyl)pyrrolidine-2-carboxamide Dihydrochloride] | < 500 | – | 500 to 2500 | – | 5000 to 50000 | > 25 | – | – |
| Cc1nc(N)ccc1CNC(=O)Cn1c(C)cnc(NCCc2ccccc2)c1=O [compound 1488] | < 500 | −− (<1.0-fold) | 2500 to 10000 | – | 500 to 5000 | < 0.5 | – | – |
| Cc1cnc(NCCc2ccccc2)c(=O)n1CC(=O)NCc1cnc2[nH]cc(Cl)c2c1 [compound 1490, N-((3-Chloro-1H-pyrrolo[2,3-b]pyridin-5-yl)methyl)-2-(6-methyl-2-oxo-3-(phenethylamino)pyrazin-1(2H)-yl)acetamide Acetate salt] | < 500 | −− (<1.0-fold) | – | – | 5000 to 50000 | < 0.5 | 2500 to 10000 | – |
| Cc1cnc(NCCc2ccccc2)c(=O)n1CC(=O)NCc1ccc2c(N)nccc2c1 [compound 1491, N-((1-Aminoisoquinolin-6-yl)methyl)-2-(6-methyl-2-oxo-3-(phenethylamino)pyrazin-1(2H)-yl)acetamide Trifluoroacetamide salt] | – | −− (<1.0-fold) | < 500 | – | 5000 to 50000 | < 0.5 | – | 500 to 2500 |
